The assay deals with T1, BRM (Homo sapiens, UniProt P51531).
T1 construct: In-Cell Western Screen of BRM Degradation in SW1573 Cells; endogenous in cells; host or cells: SW1573
Nature of the assay: In-cell Western screen of BRM degradation in SW1573 cells (Dmax and DC50). Conditions: BRM degradation, SW1573 cells; for DC50: read-out: DC50; for Dmax: when tested at the top concentration of between 0.3 and 10 μM, read-out: Dmax (%) (% degraded). Type of assay: cell-based. In a few lines: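 SW1573 cells were treated with compound overnight (18-20 h; final DMSO 0.1%), then fixed in 4% PFA, permeabilized with Triton X-100 and blocked. BRM was detected by in-cell Western using 800 nm anti-rabbit and 680 nm anti-mouse secondaries, and Dmax and DC50 were derived from the LI-COR Odyssey signal.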

The record followed here is patent publication US12539292B2, “BRM targeting compounds and associated methods of use” (Arvinas Operations, Inc., priority 2018, dated 2026).

The term DC50 denotes the concentration giving 50% degradation. In general, Dmax refers to the largest share of the target that was removed.

T1 sequence (P51531 whole entry): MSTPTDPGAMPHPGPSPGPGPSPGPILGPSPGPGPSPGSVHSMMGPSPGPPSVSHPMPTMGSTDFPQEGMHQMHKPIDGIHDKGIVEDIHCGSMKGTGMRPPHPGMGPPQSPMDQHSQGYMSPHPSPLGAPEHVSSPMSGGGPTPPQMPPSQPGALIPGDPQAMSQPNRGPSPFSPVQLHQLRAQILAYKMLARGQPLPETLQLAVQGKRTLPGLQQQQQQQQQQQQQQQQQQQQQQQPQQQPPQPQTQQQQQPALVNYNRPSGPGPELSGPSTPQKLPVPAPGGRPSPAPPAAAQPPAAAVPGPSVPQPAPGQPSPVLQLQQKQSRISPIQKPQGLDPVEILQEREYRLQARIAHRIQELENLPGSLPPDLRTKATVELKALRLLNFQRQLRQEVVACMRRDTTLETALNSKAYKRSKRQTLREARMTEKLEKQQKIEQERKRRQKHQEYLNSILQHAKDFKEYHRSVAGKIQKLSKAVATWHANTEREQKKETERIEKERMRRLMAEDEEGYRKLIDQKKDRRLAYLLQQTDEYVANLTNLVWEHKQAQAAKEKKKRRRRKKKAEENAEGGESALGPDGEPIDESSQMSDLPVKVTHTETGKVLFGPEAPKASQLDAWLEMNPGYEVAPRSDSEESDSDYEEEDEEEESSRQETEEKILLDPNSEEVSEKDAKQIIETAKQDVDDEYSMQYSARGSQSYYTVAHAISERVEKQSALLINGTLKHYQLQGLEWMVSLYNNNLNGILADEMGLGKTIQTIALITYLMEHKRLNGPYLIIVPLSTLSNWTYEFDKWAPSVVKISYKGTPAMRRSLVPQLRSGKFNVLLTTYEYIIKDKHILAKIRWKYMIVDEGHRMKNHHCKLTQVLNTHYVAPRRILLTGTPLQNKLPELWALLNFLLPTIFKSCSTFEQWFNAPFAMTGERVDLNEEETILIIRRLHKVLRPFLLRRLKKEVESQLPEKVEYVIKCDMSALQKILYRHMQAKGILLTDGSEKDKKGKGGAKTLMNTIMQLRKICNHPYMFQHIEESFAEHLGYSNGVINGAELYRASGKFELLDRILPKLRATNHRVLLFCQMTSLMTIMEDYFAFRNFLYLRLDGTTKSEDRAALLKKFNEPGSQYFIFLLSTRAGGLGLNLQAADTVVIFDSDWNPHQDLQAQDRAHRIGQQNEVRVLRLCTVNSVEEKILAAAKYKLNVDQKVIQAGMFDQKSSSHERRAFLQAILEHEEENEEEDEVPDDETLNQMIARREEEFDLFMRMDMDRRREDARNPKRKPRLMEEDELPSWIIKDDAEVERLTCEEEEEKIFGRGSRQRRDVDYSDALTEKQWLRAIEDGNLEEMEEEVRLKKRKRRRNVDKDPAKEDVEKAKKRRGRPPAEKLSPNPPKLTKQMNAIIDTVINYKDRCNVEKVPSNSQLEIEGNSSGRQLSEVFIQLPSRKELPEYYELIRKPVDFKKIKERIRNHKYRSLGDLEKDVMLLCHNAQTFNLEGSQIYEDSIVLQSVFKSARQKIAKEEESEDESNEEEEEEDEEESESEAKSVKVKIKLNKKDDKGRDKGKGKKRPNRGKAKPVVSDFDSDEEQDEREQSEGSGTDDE

On to `Cc1ncsc1-c1ccc(CNC(=O)[C@@H]2C[C@@H](O)CN2C(=O)[C@@H](NC(=O)COCCOCCn2cc(-c3cc(-c4ccccc4O)nnc3N)cn2)C(C)(C)C)cc1` [compound 11, (2S,4R)-1-((S)-2-(2-(2-(2-(4-(3-amino-6-(2-hydroxyphenyl)pyridazin-4-yl)-1H-pyrazol-1-yl)ethoxy)ethoxy)acetamido)-3,3-dimethylbutanoyl)-4-hydroxy-N-(4-(4-methylthiazol-5-yl)benzyl)pyrrolidine-2-carboxamide], for which the DC50 is more than 30 nM and the Dmax is more than 75%.
For `Cc1ncsc1-c1ccc(CNC(=O)[C@@H]2C[C@@H](O)CN2C(=O)[C@H](C(C)C)N2Cc3ccccc3C2=O)c(OCCOCCOCCOCCn2cc(-c3cc(-c4ccccc4O)nnc3N)cn2)c1` [compound 12, (2S,4R)-N-(2-(2-(2-(2-(2-(4-(3-amino-6-(2-hydroxyphenyl)pyridazin-4-yl)-1H-pyrazol-1-yl)ethoxy)ethoxy)ethoxy)ethoxy)-4-(4-methylthiazol-5-yl)benzyl)-4-hydroxy-1-((S)-3-methyl-2-(1-oxoisoindolin-2-yl)butanoyl)pyrrolidine-2-carboxamide], the half-maximal degradation concentration (DC50) was more than 30 nM and the Dmax lay within 50 to 75%.
With `Cc1ncsc1-c1ccc(CNC(=O)[C@@H]2C[C@@H](O)CN2C(=O)[C@H](C(C)C)N2Cc3ccccc3C2=O)c(OCCOCCOCCOCCOCCn2cc(-c3cc(-c4ccccc4O)nnc3N)cn2)c1` [compound 13, (2S,4R)-N-(2-((14-(4-(3-amino-6-(2-hydroxyphenyl)pyridazin-4-yl)-1H-pyrazol-1-yl)-3,6,9,12-tetraoxatetradecyl)oxy)-4-(4-methylthiazol-5-yl)benzyl)-4-hydroxy-1-((S)-3-methyl-2-(1-oxoisoindolin-2-yl)butanoyl)pyrrolidine-2-carboxamide], the half-maximal degradation concentration (DC50) is more than 30 nM and the Dmax is more than 75%.
In the case of `Cc1ncsc1-c1ccc(CNC(=O)[C@@H]2C[C@@H](O)CN2C(=O)[C@H](c2cc(OCCOCCOCCn3cc(-c4cc(-c5ccccc5O)nnc4N)cn3)no2)C(C)C)cc1` [compound 14, (2S,4R)-1-[(2S)-2-(3-[2-[2-(2-[4-[3-amino-6-(2-hydroxyphenyl)pyridazin-4-yl]-1H-pyrazol-1-yl]ethoxy)ethoxy]ethoxy]-1,2-oxazol-5-yl)-3-methylbutanoyl]-4-hydroxy-N-[[4-(4-methyl-1,3-thiazol-5-yl)phenyl]methyl]pyrrolidine-2-carboxamide], the Dmax is less than 50%.
Regarding `Cc1ncsc1-c1ccc(CNC(=O)[C@@H]2C[C@@H](O)CN2C(=O)[C@@H](c2cc(OCCOCCOCCn3cc(-c4cc(-c5ccccc5O)nnc4N)cn3)no2)C(C)C)cc1` [compound 15, (2S,4R)-1-[(2R)-2-(3-[2-[2-(2-[4-[3-amino-6-(2-hydroxyphenyl)pyridazin-4-yl]-1H-pyrazol-1-yl]ethoxy)ethoxy]ethoxy]-1,2-oxazol-5-yl)-3-methylbutanoyl]-4-hydroxy-N-[[4-(4-methyl-1,3-thiazol-5-yl)phenyl]methyl]pyrrolidine-2-carboxamide], the DC50 was 10 to 30 nM and the Dmax is more than 75%.
Turning to `Cc1ncsc1-c1ccc(CNC(=O)[C@@H]2C[C@@H](O)CN2C(=O)[C@H](c2cc(OCCOCCOCCOCCn3cc(-c4cc(-c5ccccc5O)nnc4N)cn3)no2)C(C)C)cc1` [compound 16, (2S,4R)-1-((S)-2-(3-(2-(2-(2-(2-(4-(3-amino-6-(2-hydroxyphenyl)pyridazin-4-yl)-1H-pyrazol-1-yl)ethoxy)ethoxy)ethoxy)ethoxy)isoxazol-5-yl)-3-methylbutanoyl)-4-hydroxy-N-(4-(4-methylthiazol-5-yl)benzyl)pyrrolidine-2-carboxamide], the DC50 was more than 30 nM and the maximal degradation (Dmax) was 50 to 75%.
For `Cc1ncsc1-c1ccc(CNC(=O)[C@@H]2C[C@@H](O)CN2C(=O)[C@@H](c2cc(OCCOCCOCCOCCn3cc(-c4cc(-c5ccccc5O)nnc4N)cn3)no2)C(C)C)cc1` [compound 17, (2S,4R)-1-((R)-2-(3-(2-(2-(2-(2-(4-(3-amino-6-(2-hydroxyphenyl)pyridazin-4-yl)-1H-pyrazol-1-yl)ethoxy)ethoxy)ethoxy)ethoxy)isoxazol-5-yl)-3-methylbutanoyl)-4-hydroxy-N-(4-(4-methylthiazol-5-yl)benzyl)pyrrolidine-2-carboxamide] the same measures were 2.5 to 10 nM and more than 75%.
The like results for `Cc1ncsc1-c1ccc(CNC(=O)[C@@H]2C[C@@H](O)CN2C(=O)[C@H](c2cc(OCCOCCOCCOCCOCCn3cc(-c4cc(-c5ccccc5O)nnc4N)cn3)no2)C(C)C)cc1` [compound 18, (2S,4R)-1-[(2S)-2-[3-[(14-[4-[3-amino-6-(2-hydroxyphenyl)pyridazin-4-yl]-1H-pyrazol-1-yl]-3,6,9,12-tetraoxatetradecan-1-yl)oxy]-1,2-oxazol-5-yl]-3-methylbutanoyl]-4-hydroxy-N-[[4-(4-methyl-1,3-thiazol-5-yl)phenyl]methyl]pyrrolidine-2-carboxamide] were, in that order, more than 30 nM and 50 to 75%.
Regarding `Cc1ncsc1-c1ccc(CNC(=O)[C@@H]2C[C@@H](O)CN2C(=O)[C@@H](c2cc(OCCOCCOCCOCCOCCn3cc(-c4cc(-c5ccccc5O)nnc4N)cn3)no2)C(C)C)cc1` [compound 19, (2S,4R)-1-[(2R)-2-[3-[(14-[4-[3-amino-6-(2-hydroxyphenyl)pyridazin-4-yl]-1H-pyrazol-1-yl]-3,6,9,12-tetraoxatetradecan-1-yl)oxy]-1,2-oxazol-5-yl]-3-methylbutanoyl]-4-hydroxy-N-[[4-(4-methyl-1,3-thiazol-5-yl)phenyl]methyl]pyrrolidine-2-carboxamide], the DC50 is 10 to 30 nM and the Dmax was more than 75%.
For `Cc1ncsc1-c1ccc(CNC(=O)[C@@H]2C[C@@H](O)CN2C(=O)[C@H](C(C)C)N2Cc3ccccc3C2=O)c(OCCOCCOCCOCCOCCOCCn2cc(-c3cc(-c4ccccc4O)nnc3N)cn2)c1` [compound 20, (2S,4R)-N-(2-((17-(4-(3-amino-6-(2-hydroxyphenyl)pyridazin-4-yl)-1H-pyrazol-1-yl)-3,6,9,12,15-pentaoxaheptadecyl)oxy)-4-(4-methylthiazol-5-yl)benzyl)-4-hydroxy-1-((S)-3-methyl-2-(1-oxoisoindolin-2-yl)butanoyl)pyrrolidine-2-carboxamide] the same measures were more than 30 nM and 50 to 75%.
As for `Cc1ncsc1-c1ccc(CNC(=O)[C@@H]2C[C@@H](O)CN2C(=O)[C@H](C(C)C)N2Cc3ccccc3C2=O)c(OCCOCCOCCn2cc(-c3cc(-c4ccccc4O)nnc3N)cn2)c1` [compound 21, (2S,4R)-N-(2-(2-(2-(2-(4-(3-amino-6-(2-hydroxyphenyl)pyridazin-4-yl)-1H-pyrazol-1-yl)ethoxy)ethoxy)ethoxy)-4-(4-methylthiazol-5-yl)benzyl)-4-hydroxy-1-((S)-3-methyl-2-(1-oxoisoindolin-2-yl)butanoyl)pyrrolidine-2-carboxamide], the Dmax is less than 50%.
`Cc1ncsc1-c1ccc(CNC(=O)[C@@H]2C[C@@H](O)CN2C(=O)C(c2cc(CCCOCCOCCn3cc(-c4cc(-c5ccccc5O)nnc4N)cn3)no2)C(C)C)cc1` (stereo partly drawn) [compound 22, (2S,4R)-1-(2-(3-(3-(2-(2-(4-(3-amino-6-(2-hydroxyphenyl)pyridazin-4-yl)-1H-pyrazol-1-yl)ethoxy)ethoxy)propyl)isoxazol-5-yl)-3-methylbutanoyl)-4-hydroxy-N-(4-(4-methylthiazol-5-yl)benzyl)pyrrolidine-2-carboxamide]: the half-maximal degradation concentration (DC50) was more than 30 nM and the Dmax was more than 75%.
Take `Cc1ncsc1-c1ccc(CNC(=O)[C@@H]2C[C@@H](O)CN2C(=O)[C@H](c2cc(CCCOCCOCCOCCn3cc(-c4cc(-c5ccccc5O)nnc4N)cn3)no2)C(C)C)cc1` [compound 23, (2S,4R)-1-[(2S)-2-[3-(3-[2-[2-(2-[4-[3-amino-6-(2-hydroxyphenyl)pyridazin-4-yl]-1H-pyrazol-1-yl]ethoxy)ethoxy]ethoxy]propyl)-1,2-oxazol-5-yl]-3-methylbutanoyl]-4-hydroxy-N-[[4-(4-methyl-1,3-thiazol-5-yl)phenyl]methyl]pyrrolidine-2-carboxamide]: the DC50 is more than 30 nM and the Dmax is more than 75%.
The like results for `Cc1ncsc1-c1ccc(CNC(=O)[C@@H]2C[C@@H](O)CN2C(=O)[C@@H](c2cc(CCCOCCOCCOCCn3cc(-c4cc(-c5ccccc5O)nnc4N)cn3)no2)C(C)C)cc1` [compound 24, (2S,4R)-1-[(2R)-2-[3-(3-[2-[2-(2-[4-[3-amino-6-(2-hydroxyphenyl)pyridazin-4-yl]-1H-pyrazol-1-yl]ethoxy)ethoxy]ethoxy]propyl)-1,2-oxazol-5-yl]-3-methylbutanoyl]-4-hydroxy-N-[[4-(4-methyl-1,3-thiazol-5-yl)phenyl]methyl]pyrrolidine-2-carboxamide] were, in that order, 2.5 to 10 nM and more than 75%.
With `Cc1ncsc1-c1ccc(CNC(=O)[C@@H]2C[C@@H](O)CN2C(=O)[C@H](c2cc(CCCOCCOCCOCCOCCn3cc(-c4cc(-c5ccccc5O)nnc4N)cn3)no2)C(C)C)cc1` [compound 25], the DC50 is more than 30 nM and the Dmax was more than 75%.
For `Cc1ncsc1-c1ccc(CNC(=O)[C@@H]2C[C@@H](O)CN2C(=O)[C@@H](c2cc(CCCOCCOCCOCCOCCn3cc(-c4cc(-c5ccccc5O)nnc4N)cn3)no2)C(C)C)cc1` [compound 26, (2S,4R)-1-[(2R)-2-[3-(1-[4-[3-amino-6-(2-hydroxyphenyl)pyridazin-4-yl]-1H-pyrazol-1-yl]-3,6,9,12-tetraoxapentadecan-15-yl)-1,2-oxazol-5-yl]-3-methylbutanoyl]-4-hydroxy-N-[[4-(4-methyl-1,3-thiazol-5-yl)phenyl]methyl]pyrrolidine-2-carboxamide] the same measures were 10 to 30 nM and more than 75%.
